The source of these data is US9012446B2, “Amino-oxazines and amino-dihydrothiazine compounds as beta-secretase modulators and methods of use” (Amgen Inc., priority 2010, dated 2015).

In test [1] the test system is Aβ40. The test is described as follows: In vitro BACE cell-based assay (Aβ40 sandwich ELISA, cells stably expressing APP). The following applies: Homo sapiens. The method, boiled down:
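APP-stably-expressing cells, grown 24 h in DMEM/10% FBS, received 10-point compound doses starting at 100 μM or 10 μM (0.1% DMSO final). Secreted Aβ40 in supernatants measured by sandwich ELISA with time-resolved europium fluorescence; IC50 from percent inhibition versus concentration.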
A general note: In an ELISA, binding on a coated surface is turned into a signal by an enzyme label.

The subject of test [2] is Abeta 40. The test can be described thus: In vivo inhibition of beta-secretase: Abeta 40 reduction in CSF and brain of the rat. The following applies: after 4 hrs; for inhibition in vivo at 10 mg/kg: 10 mpk. The method, boiled down: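 Male Sprague Dawley rats (200 g) were given test compound by oral gavage in 2% HPMC, 1% Tween80, pH 2.2, while a vehicle-only group served as control. After sacrifice, brains were homogenized in 0.2% DEA/50 mM NaCl or 0.5% TritonX-100 in Tris-buffered saline and centrifuged at 355,000 g, 4° C. for 30 minutes. Abeta40 in CSF and brain supernatants was quantified by ECL sandwich ELISA (biotinylated-4G8 capture, Fab40 detection) as percent reduction versus vehicle.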

In test [3] the target is BACE (Homo sapiens, UniProt P56817). The test can be described thus: In vitro enzymatic BACE FRET assay. The test is classed as biochemical. The conditions noted are these: average IC50, enzyme assay; read-out: BACE 1 FRET assay. The method, boiled down: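 BACE (0.2 nM) preincubated 1 h with serially diluted inhibitors in 0.05 M acetate pH 4.2, 10% DMSO, 100 uM genapol. FRET peptide substrate (50 nM) added, 1 h incubation, then stopped with Tris to neutral pH. Fluorescence from cleavage read at […].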
BACE, sequence (P56817 46-501, species assumed): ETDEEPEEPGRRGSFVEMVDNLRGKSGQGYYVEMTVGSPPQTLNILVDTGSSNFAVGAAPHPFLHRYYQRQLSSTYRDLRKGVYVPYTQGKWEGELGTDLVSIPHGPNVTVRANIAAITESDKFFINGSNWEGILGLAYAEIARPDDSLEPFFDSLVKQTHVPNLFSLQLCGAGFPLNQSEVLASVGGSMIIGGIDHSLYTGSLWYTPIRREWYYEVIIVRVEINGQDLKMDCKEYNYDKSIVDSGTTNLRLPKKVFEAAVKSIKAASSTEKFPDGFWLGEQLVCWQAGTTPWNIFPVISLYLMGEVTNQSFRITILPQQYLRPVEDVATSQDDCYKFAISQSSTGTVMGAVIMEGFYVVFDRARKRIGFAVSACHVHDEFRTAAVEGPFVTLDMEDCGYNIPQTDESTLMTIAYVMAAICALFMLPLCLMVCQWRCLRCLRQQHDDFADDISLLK

Where [4] appears, read: HEK293, average IC50, read-out: HEK cell assay.
[5] abbreviates: Abeta 40, rat CSF, read-out: % reduction of rat CSF levels at 10 pmk.
[6] abbreviates: Abeta 40, rat brain, read-out: % reduction of rat brain levels at 10 mpk.
[7] abbreviates: HEK293, average IC50, cell assay, HEK cells.

Where two headings read alike, the source gives them in different places.

In the case of `Cc1cc(-c2cc3c(c(F)n2)Oc2ccc(-c4cccnc4F)cc2[C@@]32COCC(N)=N2)ccn1` [Example 248, (S)-1-fluoro-7-(2-fluoropyridin-3-yl)-3-(2-methylpyridin-4-yl)-2′,6′-dihydrospiro[chromeno[2,3-c]pyridine-5,3′-[1,4]oxazin]-5′-amine], the IC50 in test [1] (setting [4]) came out at 700 pM; in test [3] it was 600 pM. The values for the inhibition in vivo at 10 mg/kg in test [2] (setting [5]) and in test [2] (setting [6]) were 53% and 39%, respectively.

Regarding `CC(C)(C)C#Cc1cc2c(cn1)Oc1ccc(-c3cccnc3F)cc1[C@@]21CCOC(N)=N1` [Example 154, (S)-3-(3,3-dimethylbut-1-ynyl)-7-(2-fluoropyridin-3-yl)-5′,6′-dihydrospiro[chromeno[2,3-c]pyridine-5,4′-[1,3]oxazin]-2′-amine], the IC50 in test [1] (setting [7]) is 5000 pM; in test [3] it was 5800 pM. Moreover, the inhibition in vivo at 10 mg/kg was 57% in test [2] (setting [5]) and 37% in test [2] (setting [6]).

For `CC(C)(C)COc1cc2c(cn1)Oc1ccc(-c3cncc(F)c3)cc1[C@@]21COCC(N)=N1` [Example 120, (S)-7-(5-fluoropyridin-3-yl)-3-(neopentyloxy)-2′,6′-dihydrospiro[chromeno[2,3-c]pyridine-5,3′-[1,4]oxazin]-5′-amine], the IC50 in test [1] (setting [7]) was found to be 700 pM; in test [3] it was 600 pM. The “% reduction of rat CSF levels” value in test [2] (Abeta 40, rat CSF) came out at 30% at 3 mpk. Moreover, the “% reduction of rat brain levels” value in test [2] (Abeta 40, rat brain) is 24% at 3 mpk.

Consider `NC1=N[C@@]2(CCO1)c1cc(-c3cccnc3F)ccc1Oc1c(F)cc(C3=CCOCC3)cc12` [Example 163, (S)-2′-(3,6-dihydro-2H-pyran-4-yl)-4′-fluoro-7′-(2-fluoropyridin-3-yl)-5,6-dihydrospiro[[1,3]oxazine-4,9′-xanthen]-2-amine], for which the IC50 in test [1] (setting [4]) turned out to be 6000 pM; in test [3] it was 2600 pM. The inhibition in vivo at 10 mg/kg stood at 52% in test [2] (setting [5]) and 28% in test [2] (setting [6]).

Turning to `NC1=N[C@@]2(CCO1)c1cc(-c3cccnc3F)ccc1Oc1c2cc(-c2ccnc(F)c2)nc1F` [Example 107, (S)-1-fluoro-7-(2-fluoropyridin-3-yl)-3-(2-fluoropyridin-4-yl)-5′,6′-dihydrospiro[chromeno[2,3-c]pyridine-5,4′-[1,3]oxazin]-2′-amine], the results for the IC50 in test [1] (setting [7]) and in test [3] were 1800 pM and 500 pM, respectively. For the same molecule, the inhibition in vivo at 10 mg/kg in test [2] (setting [5]) came to 82%; in test [2] (setting [6]) it was 72%.

In the case of `NC1=N[C@@]2(COC1)c1cc(-c3cccnc3F)ccc1Oc1cnc(-c3ccnc(F)c3)cc12` [Example 30, (S)-7-(2-fluoropyridin-3-yl)-3-(2-fluoropyridin-4-yl)-2′,6′-dihydrospiro[chromeno[2,3-c]pyridine-5,3′-[1,4]oxazin]-5′-amine], the IC50 in test [1] (setting [7]) is 1700 pM; in test [3], 300 pM. Besides, the inhibition in vivo at 10 mg/kg in test [2] (setting [5]) was 67%; in test [2] (setting [6]) it was 62%.

Regarding `CC(C)(C)COc1cc2c(cn1)Oc1ccc(-c3cccnc3F)cc1[C@@]21COCC(N)=N1` [Example 33, (S)-7-(2-fluoropyridin-3-yl)-3-(neopentyloxy)-2′,6′-dihydrospiro[chromeno[2,3-c]pyridine-5,3′-[1,4]oxazin]-5′-amine], the values for the IC50 in test [1] (setting [7]) and in test [3] were 1100 pM and 400 pM, respectively. Also, the values for the inhibition in vivo at 10 mg/kg in test [2] (setting [5]) and in test [2] (setting [6]) were 61% and 48%, respectively.

As to `NC1=N[C@@]2(COC1)c1cc(-c3cncc(F)c3)ccc1Oc1cnc(N3CCC(F)(F)C3)cc12` [Example 122, (S)-3-(3,3-difluoropyrrolidin-1-yl)-7-(5-fluoropyridin-3-yl)-2′,6′-dihydrospiro[chromeno[2,3-c]pyridine-5,3′-[1,4]oxazin]-5′-amine], the IC50 in test [1] (setting [7]) is 300 pM; in test [3], 600 pM. Besides, the “% reduction of rat CSF levels” value in test [2] (Abeta 40, rat CSF) amounted to 11% at 3 mpk. The “% reduction of rat brain levels” value in test [2] (Abeta 40, rat brain) amounted to 14% at 3 mpk.

As to `NC1=N[C@@]2(COC1)c1cc(-c3cccnc3)ccc1Oc1c(F)cc(C3=CCCOC3)cc12` [Example 63, (S)-2′-(5,6-dihydro-2H-pyran-3-yl)-4′-fluoro-7′-(pyridin-3-yl)-2,6-dihydrospiro[[1,4]oxazine-3,9′-xanthen]-5-amine], the IC50 came to 500 pM in test [1] (setting [7]) and 300 pM in test [3]. In addition, the values for the inhibition in vivo at 10 mg/kg in test [2] (setting [5]) and in test [2] (setting [6]) were 19% and 16%, respectively.

For `CC(C)(C)COc1cc2c(cn1)Oc1ccc(-c3cccnc3)cc1[C@@]21COCC(N)=N1` [Example 119, (S)-3-(neopentyloxy)-7-(pyridin-3-yl)-2′,6′-dihydrospiro[chromeno[2,3-c]pyridine-5,3′-[1,4]oxazin]-5′-amine], the IC50 in test [1] (setting [7]) is 400 pM; in test [3], 600 pM. In addition, the “% reduction of rat CSF levels” value in test [2] (Abeta 40, rat CSF) turned out to be 5% at 3 mpk. Further, the “% reduction of rat brain levels” value in test [2] (Abeta 40, rat brain) was determined as 6% at 3 mpk.

`NC1=N[C@]2(COC1)c1cc(-c3ccnc(F)c3)ccc1Oc1ccc(-c3cccnc3F)cc12` [Example 65, (R)-2′-(2-fluoropyridin-3-yl)-7′-(2-fluoropyridin-4-yl)-2,6-dihydrospiro[[1,4]oxazine-3,9′-xanthen]-5-amine]: the IC50 in test [1] (setting [7]) was determined as 18200 pM; in test [3], 1600 pM. The inhibition in vivo at 10 mg/kg was determined as 14% in test [2] (setting [5]) and 55% in test [2] (setting [6]).
